According to publication PMC2362044, “A potent nonporphyrin class of photodynamic therapeutic agent: cellular localisation, cytotoxic potential and influence of hypoxia” (British Journal of Cancer, 2005):
Read-outs that look alike come from different tables or passages of the source.

Columns and labels:
A2780 cells = test: Colorimetric survival (MTT) assay after photo-irradiation, normoxia; format: cell-based; conditions: Homo sapiens, A2780, 3 h incubation
Procedure: (§1) All cell lines unless otherwise stated were obtained from the American Type Culture Collection. HeLa, MRC5, HT-1080, MDA-MB-231, MCF-7 and T47-D cells were cultured in minimum essential medium (MEM) supplemented with 10% (v v^−1) foetal calf serum (FCS), 1% (v v^−1) non-essential amino acids, 50 U ml^−1 penicillin, 50 μg ml^−1 streptomycin, 20 mM HEPES and 1% (v v^−1) L-glutamine (Gibco-BRL). SW480, SW620 (obtained from Professor D Croke, Royal College of Surgeons, Dublin), A2780 and A2780cp70 cells (Obtained from Professor R Brown, Cancer Research UK, Beatson Laboratories, Glasgow) were cultured in RPMI-1640 medium plus the above-mentioned supplements. All cells were maintained in 5% CO2 (v v^−1) and 21% O2 (v v^−1) at 37°C unless otherwise stated.
(§2) Cells were seeded in 96-well flat-bottomed microtitre plates (5000 cells well^−1) and incubated at 37°C in a 5% CO2 incubator for 24 h. Cells were then incubated with varying concentrations of photosensitiser (1 × 10^−9 to 1 × 10^−4 M) in the dark for 3 h at 37°C. The ADPM compound-laden medium was then removed, the cells were washed with PBS and fresh culture medium was added to each well. This was followed by light irradiation with a broad-spectrum red light source (600–750 nm) via a Waldmann PDT1200L light delivery system. For this study, fluences (light exposures) of either 8 or 16 J cm^−2, at a dose rate of 80 mW cm^−2, were used. Following irradiation, the cells were incubated for a further 48 h before being assessed for cell viability by a standard MTT assay (Sigma). The subsequent colour change produced by viable cells was quantified using a plate reader (VICTOR^2 1420 multilabel HTS counter, Wallac). […] The dark toxicity of each compound was also assessed.
(§3) Prism ([…]) was used to graph the data obtained from the MTT assays and the uptake/clearance experiments. This program allows nonlinear regression analysis and the generation of sigmoidal dose–response curves. Prism also automatically calculates EC50 values. Statistical analysis was performed using the ANOVA test (Prism). Significant differences were detected using the Bonferroni multiple comparison test. P-values <0.05 were considered statistically significant.

A2780cp70 cells = test: as above; format: cell-based; conditions: Homo sapiens, A2780/CP70, A2780cp70, 3 h incubation
Procedure: as §1, §2, §3

HT-1080 cells = test: as above; format: cell-based; conditions: Homo sapiens, HT-1080, 3 h incubation
Procedure: as §1, §2, §3

HeLa cells [1] = test: as above; format: cell-based; conditions: Homo sapiens, normoxia 21% oxygen, 3 h incubation
Procedure: as §1, §2, §3

MCF-7 cells = test: as above; format: cell-based; conditions: Homo sapiens, MCF7, MCF-7, 3 h incubation
Procedure: as §1, §2, §3

MDA-MB-231 cells = test: as above; format: cell-based; conditions: Homo sapiens, MDA-MB-231, 3 h incubation
Procedure: as §1, §2, §3

MRC-5 cells = test: as above; format: cell-based; conditions: Homo sapiens, MRC5, MRC-5, normoxia 21% oxygen, 3 h incubation
Procedure: as §1, §2, §3

SW480 cells = test: as above; format: cell-based; conditions: Homo sapiens, SW480, 3 h incubation
Procedure: as §1, §2, §3

SW620 cells = test: as above; format: cell-based; conditions: Homo sapiens, SW-620, SW620, 3 h incubation
Procedure: as §1, §2, §3

T47-D cells = test: as above; format: cell-based; conditions: Homo sapiens, T47D, 3 h incubation
Procedure: as §1, §2, §3

HeLa cells [2] = test: Flow cytometric assessment of apoptosis (Annexin-V/PI); format: cell-based, human
Procedure: (§4) Evaluation of apoptotic and necrotic cell populations was achieved using the ApoTarget Annexin-V FITC Apoptosis kit (BioSource International, Inc.). Cells (2.0 × 10^5) were seeded into 25 cm^2 flasks and treated with either ADPM01 or ADPM06 at respective EC50 or 10-fold EC50 concentration levels for 3 h, followed by irradiation with red light at 16 J cm^−2, as described above. Subsequently, cells were incubated for 4 and 16 h, with floating and adherent cells being collected at each time point by centrifugation and then stained with Annexin-V and propidium iodide (PI) as per the manufacturer's instructions. The percentage of cells at different phases of cell death, namely nonapoptotic (Annexin-V^−/PI^−), early apoptotic (Annexin-V^+/PI^−), and necrotic or late-stage apoptotic (Annexin-V^+/PI^+), was quantified using a EPICS XL-MCL flow cytometer (Coulter) and analysed using System II software, with at least 5000 cells being analysed for each run.

MRC5 cells = test: as above; format: cell-based, human
Procedure: as §4

[3] = parameters: method as in Gorman et al, 2004; conditions: ref Gorman et al, 2004, cited from earlier work; for strong absorbance band: formulated in CrEL/PBS
[4] = 0 J cm^−2, read-out: EC50 (M) (dark)
[5] = 8 J cm^−2, read-out: EC50 (M) (8 J cm^−2)
[6] = 16 J cm^−2, read-out: EC50 (M) (16 J cm^−2)
[7] = 10-fold EC50 concentration, 16 h post-irradiation
[8] = EC50 concentration, 4 h post-irradiation
[9] = MRC5, 10-fold EC50 concentration, 16 h post-irradiation
[10] = MRC5, EC50 concentration, 4 h post-irradiation

## F[B-]1(F)n2c(-c3ccccc3)cc(-c3ccccc3)c2N=C2C(c3ccccc3)=CC(c3ccccc3)=[N+]21 [ADPM01]
A2780 cells; [4]
  EC50: > 0.0001 M
A2780 cells; [5]
  EC50: 5.1e-06 M
A2780 cells; [6]
  EC50: 4.5e-06 M
A2780cp70 cells; [4]
  EC50: > 0.0001 M
A2780cp70 cells; [5]
  EC50: 6.8e-06 M
A2780cp70 cells; [6]
  EC50: 2.8e-06 M
HT-1080 cells; [4]
  EC50: > 0.0001 M
HT-1080 cells; [5]
  EC50: 3.4e-05 M
HT-1080 cells; [6]
  EC50: 2.2e-05 M
HeLa cells [1]; [4]
  EC50: 2.7e-05 M
HeLa cells [1]; [5]
  EC50: 2.8e-06 M
HeLa cells [1]; [6]
  EC50: 9.2e-07 M
MCF-7 cells; [4]
  EC50: > 0.0001 M
MCF-7 cells; [5]
  EC50: 3.4e-06 M
MCF-7 cells; [6]
  EC50: 1.9e-06 M
MDA-MB-231 cells; [4]
  EC50: 1.2e-05 M
MDA-MB-231 cells; [5]
  EC50: 5.6e-06 M
MDA-MB-231 cells; [6]
  EC50: 2.6e-07 M
MRC-5 cells; [4]
  EC50: > 0.0001 M
MRC-5 cells; [5]
  EC50: 3.1e-06 M
MRC-5 cells; [6]
  EC50: 5e-07 M
SW480 cells; [4]
  EC50: > 0.0001 M
SW480 cells; [5]
  EC50: 7.6e-06 M
SW480 cells; [6]
  EC50: 8e-07 M
SW620 cells; [4]
  EC50: > 0.0001 M
SW620 cells; [5]
  EC50: 5.6e-06 M
SW620 cells; [6]
  EC50: 2.8e-06 M
T47-D cells; [4]
  EC50: > 0.0001 M
T47-D cells; [5]
  EC50: 5.6e-06 M
T47-D cells; [6]
  EC50: 5.3e-06 M
HeLa cells [2]; [7]
  cells in lower left quadrant (Annexin-V−/PI−, nonapoptotic): 42.5%
  cells in lower right quadrant (Annexin-V+/PI−, early apoptotic): 16.5%
  cells in upper left quadrant (PI+, Annexin-V−): 1.0%
  cells in upper right quadrant (Annexin-V+/PI+, necrotic or late-stage apoptotic): 40.0%
HeLa cells [2]; [8]
  cells in lower left quadrant (Annexin-V−/PI−, nonapoptotic): 95.3%
  cells in lower right quadrant (Annexin-V+/PI−, early apoptotic): 4.40%
  cells in upper left quadrant (PI+, Annexin-V−): 0.16%
  cells in upper right quadrant (Annexin-V+/PI+, necrotic or late-stage apoptotic): 0.12%
MRC5 cells; [9]
  cells in lower left quadrant (Annexin-V−/PI−, nonapoptotic): 26.9%
  cells in lower right quadrant (Annexin-V+/PI−, early apoptotic): 31.8%
  cells in upper left quadrant (PI+, Annexin-V−): 0.5%
  cells in upper right quadrant (Annexin-V+/PI+, necrotic or late-stage apoptotic): 40.8%
MRC5 cells; [10]
  cells in lower left quadrant (Annexin-V−/PI−, nonapoptotic): 94.1%
  cells in lower right quadrant (Annexin-V+/PI−, early apoptotic): 3.82%
  cells in upper left quadrant (PI+, Annexin-V−): 0.84%
  cells in upper right quadrant (Annexin-V+/PI+, necrotic or late-stage apoptotic): 1.28%
[3]
  strong absorbance band: 658 nm
  fluorescence quantum yield (Φf): 0.34

## COc1ccc(C2=[N+]3C(=Nc4c(-c5ccccc5)c(Br)c(-c5ccc(OC)cc5)n4[B-]3(F)F)C(c3ccccc3)=C2Br)cc1 [ADPM06]
A2780 cells; [5]
  EC50: 1e-07 M
A2780 cells; [6]
  EC50: 3.5e-08 M
A2780cp70 cells; [5]
  EC50: 6.2e-08 M
A2780cp70 cells; [6]
  EC50: 2.7e-08 M
HT-1080 cells; [5]
  EC50: 7.9e-08 M
HT-1080 cells; [6]
  EC50: 3.7e-08 M
HeLa cells [1]; [4]
  EC50: > 0.0001 M
HeLa cells [1]; [5]
  EC50: 6.3e-08 M
HeLa cells [1]; [6]
  EC50: 4.1e-08 M
MCF-7 cells; [5]
  EC50: 1.2e-07 M
MCF-7 cells; [6]
  EC50: 7.5e-08 M
MDA-MB-231 cells; [5]
  EC50: 1.4e-07 M
MDA-MB-231 cells; [6]
  EC50: 7.5e-08 M
MRC-5 cells; [4]
  EC50: > 0.0001 M
MRC-5 cells; [5]
  EC50: 3.7e-08 M
MRC-5 cells; [6]
  EC50: 1.4e-08 M
SW480 cells; [5]
  EC50: 5.4e-06 M
SW480 cells; [6]
  EC50: 4.2e-08 M
SW620 cells; [5]
  EC50: 7.5e-08 M
SW620 cells; [6]
  EC50: 6e-08 M
T47-D cells; [5]
  EC50: 1.6e-06 M
T47-D cells; [6]
  EC50: 6.3e-07 M
HeLa cells [2]; [7]
  cells in lower left quadrant (Annexin-V−/PI−, nonapoptotic): 42.3%
  cells in lower right quadrant (Annexin-V+/PI−, early apoptotic): 34.1%
  cells in upper left quadrant (PI+, Annexin-V−): 0.6%
  cells in upper right quadrant (Annexin-V+/PI+, necrotic or late-stage apoptotic): 23.0%
HeLa cells [2]; [8]
  cells in lower left quadrant (Annexin-V−/PI−, nonapoptotic): 95.6%
  cells in lower right quadrant (Annexin-V+/PI−, early apoptotic): 3.88%
  cells in upper left quadrant (PI+, Annexin-V−): 0.20%
  cells in upper right quadrant (Annexin-V+/PI+, necrotic or late-stage apoptotic): 0.30%
MRC5 cells; [9]
  cells in lower left quadrant (Annexin-V−/PI−, nonapoptotic): 28.6%
  cells in lower right quadrant (Annexin-V+/PI−, early apoptotic): 45.4%
  cells in upper left quadrant (PI+, Annexin-V−): 0.7%
  cells in upper right quadrant (Annexin-V+/PI+, necrotic or late-stage apoptotic): 25.3%
MRC5 cells; [10]
  cells in lower left quadrant (Annexin-V−/PI−, nonapoptotic): 95.9%
  cells in lower right quadrant (Annexin-V+/PI−, early apoptotic): 2.84%
  cells in upper left quadrant (PI+, Annexin-V−): 0.38%
  cells in upper right quadrant (Annexin-V+/PI+, necrotic or late-stage apoptotic): 0.88%
[3]
  strong absorbance band: 683 nm
  fluorescence quantum yield (Φf): 0.1
